We go through two compounds from patent US12311054B2, “Compositions and methods of using propylene sulfide-based polymers for treatment of Chagas disease” (priority 2019, dated 2025).

Each structure is given as a SMILES string. pIC50: −log10 of the molar value. Like-named read-outs stand apart in the source and are kept apart here.

Series [1] has as its system extracellular T. cruzi developmental stages. The settings on record: cited from earlier work.
Series [2] relates to T. cruzi Y strain trypomastigote. The series can be described thus: Anti-trypomastigote activity, resazurin assay, Y strain. Format: cell-based. Conditions: Trypanosoma cruzi, 24 h, read-out: half-inhibitory concentration (IC50), Y strain trypomastigote. The procedure: (§1) IC50 for two strains of T. cruzi. The trypancidal effectiveness of BNZ-PS for Y and Tulauen strain was evaluated in vitro using the resarzurin assay (FIG. 2a).
The Y strain of T. cruzi was used for all experiments. Epimastigotes were cultured using standard methods and tissue culture amastigotes and trypomastigotes were produced by the addition of log-phase epimastigotes to cultured H9C2 rat myoblast cells, which contain small numbers of metacyclic trypomastigotes capable of initiating mammalian cell infection. After several days of culture in H9C2 cells, amastigotes and trypomastigotes were purified for use in IC50 determination experiments.
Resazurin method was used to evaluate in vitro anti-trypanosoma activity against Y trypomastigotes. 1×10^7 trypomastigotes mL^−1 were incubated in 96-well plates containing serial dilution of BNZ and BNZ-PS in RPMI […] medium with 5% FBS, penicillin (100 μL/mL), […] (100 μL/mL) and L-glutamine (2 mM). For BNZ, the stock solution (1024 mM) was prepared in DMSO and made serial dilution to 1024 μM, 512 μM, 256 μM, 128 μM, 64 μM, 32 μM, 16 μM, 8 μM, 4 μM. […] The fluorescence was measure on a microplate reader (BMG Labtech) at 560/590 nm to evaluate trypomastigote viability. A log concentration vs response curve was generated and the BNZ IC50 was calculated in GraphPad Prism 7.0.

Series [3] relates to T. cruzi-infected patients. Conditions: standard BNZ doses; cited from earlier work.
In series [4] the test system is T. cruzi Tulahuen strain amastigote (Luc-mNeonGreen). In words: Anti-amastigote activity in infected H9C2 cells, bioluminescent quantification, Tulahuen strain. Format: cell-based. Conditions: Trypanosoma cruzi, Tulauan strain amastigotes in H9C2 cells, bioluminescence, 48 h.
Protocol: For the evaluation of anti-amastigote activity of T. cruzi Tulahuen strain, 5000 H9C2 cells were seeded in a 96 well clear bottom tissue culture plate (Thermo Scientific). After 24 hours, the culture was infected with Luc-mNeonGreen Tulahuen strain trypomastigotes at a 1:5 host-to-parasite cell ratio for 24 h. […] The medium was replaced every 24 h. At 48 h, 10 μL of 15 mg mL-1 luciferin were added into each well, and the luciferase intensity was measured using a IVIS Spectrum (Caliper Life Science) and the ROI was analyzed with Softmas Pro. Exposure time varied from 5 s to 15 s depending on signal intensity.
For series [5], the system named is T. cruzi Tulauen strain trypomastigote. In words: Anti-trypomastigote activity, resazurin assay, Tulauen strain. Format: cell-based. The settings on record: Trypanosoma cruzi, read-out: half-inhibitory concentration (IC50), Tulauan strain trypomastigote. The method, then:
as §1
Resazurin method was used to evaluate in vitro anti-trypanosoma activity against Y trypomastigotes. 1×10^7 trypomastigotes mL^−1 were incubated in 96-well plates containing serial dilution of BNZ and BNZ-PS in RPMI […] medium with 5% FBS, penicillin (100 μL/mL), […] (100 μL/mL) and L-glutamine (2 mM). For BNZ, the stock solution (1024 mM) was prepared in DMSO and made serial dilution to 1024 μM, 512 μM, 256 μM, 128 μM, 64 μM, 32 μM, 16 μM, 8 μM, 4 μM. For BNZ-PS, the stock solution (BNZ 1170 μM) was made serial dilution to 256 μM, 128 μM, 64 μM, 32 μM, 16 μM, 8 μM, 4 μM, 2 μM, 1 μM, 0.5 μM. After incubation for 24 h, at 37° C. and 5% CO2, 10 μL of alamarBlue Cell Viability reagent (Invitrogen) were added in each well, then incubate at 37° C. for 4 h. The fluorescence was measure on a microplate reader (BMG Labtech) at 560/590 nm to evaluate trypomastigote viability. A log concentration vs response curve was generated and the BNZ IC50 was calculated in GraphPad Prism 7.0.

For series [6] the following is noted: traditional oral formulation; cited from earlier work.
The conditions of series [7]: cited from earlier work.
For series [8] the following is noted: humans; cited from earlier work.
A short description of series [9]: Assessment of the toxicity of BNZ and BNZ-PS in vivo. The arrangement: species or system mouse. The settings on record: BNZ 100 mg/kg. The method, then: […] Mice weight was recorded during the treatment course. […] Serums (Sera) were sent out to central lab (IDEXX BioResearch) to measure alanine aminotransferase (ALT/SGPT), aspartate aminotransferase (AST/SGOT), bile acid, bilirubin, blood urea nitrogen (BUN), creatinine, gamma-glutamyltransferase (GGT).

Series [10] relates to T. cruzi Y strain infected BALB/c mice. The series can be described thus: BNZ and BNZ-PS therapy in murine model of acute Chagas disease. In kind it is in vivo, mouse.
For series [11], the system named is T. cruzi Y strain amastigote. The series can be described thus: Anti-amastigote activity in infected H9C2 cells, Giemsa counting, Y strain. Format: cell-based. Conditions: Trypanosoma cruzi, Y strain amastigotes in H9C2 cells, 48 h.
The conditions of series [12]: mice; cited from earlier work.
For a further series, the system named is T. cruzi. The series can be described thus: IC50 of free vs nanocarrier-loaded Benznidazole (description, stage and strain not stated). Format: cell-based. Conditions: Trypanosoma cruzi; free vs loaded in nanocarrier; typical / estimated values.

Turning to `C[C@@H]1[C@H](O)[C@@H](C)/C=C/C=C/C=C/C=C/C=C/C=C/C=C/[C@H](O[C@@H]2O[C@H](C)[C@@H](O)[C@H](N)[C@@H]2O)C[C@@H]2O[C@](O)(C[C@@H](O)C[C@@H](O)[C@H](O)CC[C@@H](O)C[C@@H](O)CC(=O)O[C@H]1C)C[C@H](O)[C@H]2C(=O)O` [Amphotericin B], the “activity against extracellular T. cruzi developmental stages” value in series [1] is recorded as “satisfactory”.
For `O=C(Cn1ccnc1[N+](=O)[O-])NCc1ccccc1` [BNZ, N-benzyl-2-(2-nitro-1H-imidazol-1-yl)acetamide], the pIC50 in series [2] is 4.25; in series [4] it was 4.90; in series [5] it was 4.91; in series [11] it was 4.52; in the series with T. cruzi, about 4.48. The “patients interrupting treatment due to severe side effects” value in [3] was 20%. Besides, the “fraction of drug bound to plasmatic proteins” value in series [6] was “over 40%”. Moreover, the results for the water solubility entry in [7] and in series [7] (listed as Benznidazole (BNZ)) were “practically insoluble in water” and “poor water solubility”, respectively. Further, the “half-life (t1/2)” value is listed as 12 h in [8] and 2 h in series [12]. Further, the “hepatotoxicity, serum ALT” value in series [9] (d21) is recorded as “show hepatotoxicity as reflected by increased serum ALT”. Besides, in series [9] (BNZ-PS 1.5 or 0.15 mg/kg, 3 weeks), the “body weight during treatment” value was “lose weight”. For the same compound, in [10] (end of experiment, 25 dpi), the “heart parasitemia (qPCR)” value is on record as “significantly reduces the heart parasitemia”. The suppression of parasitemia entry in series [10] (infected mice treated from d7, monitored to d25) was “Effective suppression of parasitemia”.
